According to US20230398130A1, “METHODS AND COMPOSITIONS FOR DIFFERENTIATING STEM CELLS” (Massachusetts Institute of Technology, priority 2020, published 2023):

Assays:
ISC-enriched organoids [1] = assay: Primary screen, 384-well 2.5-D organoid differentiation (ENR+CD, 6 days): basal lysozyme secretion (LYZ.NS); type: cell-based, murine; conditions: primary screen; for Dose.FC.LYZ.NS (log 2 fold change): vs plate median
Excerpt: (§1) High-throughput screening.

ISC-enriched organoids [2] = assay: Primary screen, 384-well 2.5-D organoid differentiation (ENR+CD, 6 days): carbachol-induced lysozyme secretion (LYZ.S); type: cell-based, murine; conditions: primary screen, vs plate median
Excerpt: as §1

ISC-enriched organoids [3] = assay: Primary screen, 384-well 2.5-D organoid differentiation (ENR+CD, 6 days, Target Selective Inhibitor Library, vs whole-plate median): ATP (CellTiter-Glo 3D, CTG); conditions: primary screen; for Dose.FC.CTG (log 2 fold change): vs plate median

Structure (SMILES) | Z.LYZ.NS (standard z score) (ISC-enriched organoids [1]; Dose 0.08 uM) | Dose.FC.LYZ.NS (log 2 fold change) (ISC-enriched organoids [1]; Dose 0.08 uM) | Z.LYZ.NS (standard z score) (ISC-enriched organoids [1]; Dose 0.40 uM) | Dose.FC.LYZ.NS (log 2 fold change) (ISC-enriched organoids [1]; Dose 0.40 uM) | Z.LYZ.NS (standard z score) (ISC-enriched organoids [1]; Dose 2.00 uM) | Dose.FC.LYZ.NS (log 2 fold change) (ISC-enriched organoids [1]; Dose 2.00 uM) | Z.LYZ.NS (standard z score) (ISC-enriched organoids [1]; Dose 10.00 uM) | Dose.FC.LYZ.NS (log 2 fold change) (ISC-enriched organoids [1]; Dose 10.00 uM) | Dose.FC.LYZ.S (log 2 fold change) (ISC-enriched organoids [2]; Dose 0.08 uM) | Dose.FC.LYZ.S (log 2 fold change) (ISC-enriched organoids [2]; Dose 0.40 uM) | Dose.FC.LYZ.S (log 2 fold change) (ISC-enriched organoids [2]; Dose 2.00 uM) | Dose.FC.LYZ.S (log 2 fold change) (ISC-enriched organoids [2]; Dose 10.00 uM) | Z.CTG (standard z score) (ISC-enriched organoids [3]; Dose 0.08 uM) | Dose.FC.CTG (log 2 fold change) (ISC-enriched organoids [3]; Dose 0.08 uM) | Z.CTG (standard z score) (ISC-enriched organoids [3]; Dose 0.40 uM) | Dose.FC.CTG (log 2 fold change) (ISC-enriched organoids [3]; Dose 0.40 uM) | Z.CTG (standard z score) (ISC-enriched organoids [3]; Dose 2.00 uM) | Dose.FC.CTG (log 2 fold change) (ISC-enriched organoids [3]; Dose 2.00 uM) | Z.CTG (standard z score) (ISC-enriched organoids [3]; Dose 10.00 uM) | Dose.FC.CTG (log 2 fold change) (ISC-enriched organoids [3]; Dose 10.00 uM)
CC(C)(C)c1cnc(CSc2cnc(NC(=O)C3CCNCC3)s2)o1 [SNS-032 (BMS-387032)] | 0.428 | 0.049 | −1.241 | −0.143 | −2.399 | −0.276 | −2.214 | −0.254 | 0.070 | −0.206 | −0.301 | −0.361 | −0.180 | −0.075 | −0.198 | −0.083 | −2.186 | −0.915 | −2.411 | −1.009
O=C(Nc1cc(C(F)(F)F)ccc1N1CCCCC1)c1ccncc1 [SRPIN340] | 1.004 | 0.115 | 0.348 | 0.040 | 0.846 | 0.097 | 0.192 | 0.022 | 0.112 | 0.098 | 0.100 | 0.078 | 1.005 | 0.421 | 1.063 | 0.445 | 1.083 | 0.453 | 1.115 | 0.467
O=C(Nc1ccccc1-c1cn2c(CN3CCNCC3)csc2n1)c1cnc2ccccc2n1 [SRT1720] | 1.495 | 0.172 | 0.972 | 0.112 | 0.613 | 0.070 | −0.906 | −0.104 | 0.190 | 0.099 | 0.051 | −0.193 | 1.264 | 0.529 | 0.940 | 0.394 | 0.810 | 0.339 | −2.427 | −1.016
COc1c(C)c(C(=O)c2ccc(N)c(C(=O)[O-])c2)n2ccccc12.[Na+] [SSR128129E] | 0.807 | 0.093 | 0.339 | 0.039 | 0.257 | 0.030 | −0.850 | −0.098 | 0.086 | 0.122 | 0.023 | −0.095 | 0.210 | 0.088 | 0.545 | 0.228 | 0.291 | 0.122 | −0.063 | −0.026
Cc1ccc(S(=O)(=O)Cc2nc(-c3ccc(C(=O)NCc4cccnc4)cc3)oc2C)cc1 [STF-118804] | −1.349 | −0.155 | −1.824 | −0.210 | −1.502 | −0.172 | −1.541 | −0.177 | −0.257 | −0.212 | −0.271 | −0.300 | −0.360 | −0.151 | −3.346 | −1.401 | −2.189 | −0.916 | −3.195 | −1.338
O=C(/C=C/c1ccccc1)NC(NC(=S)Nc1ccc(Cl)cc1)C(Cl)(Cl)Cl (stereo not shown) [Sal003] | 1.013 | 0.116 | 1.595 | 0.183 | 0.670 | 0.077 | −2.142 | −0.246 | 0.092 | 0.067 | 0.040 | −0.408 | 0.456 | 0.191 | 0.370 | 0.155 | 0.468 | 0.196 | −1.981 | −0.829
Cn1cnc2c(F)c(Nc3ccc(Br)cc3Cl)c(C(=O)NOCCO)cc21 [Selumetinib (AZD6244)] | 0.181 | 0.021 | −0.188 | −0.022 | −0.847 | −0.097 | −1.220 | −0.140 | 0.004 | −0.047 | −0.175 | −0.211 | 0.393 | 0.164 | −0.395 | −0.165 | −0.613 | −0.257 | −2.035 | −0.852
CC(C)[C@H](O)C(=O)N[C@@H](C)C(=O)N[C@@H]1C(=O)N(C)CCc2ccccc21 [Semagacestat (LY450139)] | 0.151 | 0.017 | −0.181 | −0.021 | −0.704 | −0.081 | −0.942 | −0.108 | −0.014 | −0.006 | −0.081 | −0.162 | 0.338 | 0.141 | −0.494 | −0.207 | −0.306 | −0.128 | −2.045 | −0.856
